The record followed here is US9320276B2, “N-hetarylmethyl pyrazolylcarboxamides” (BAYER INTELLECTUAL PROPERTY GMBH, priority 2010, dated 2016).

SMILES strings stand for the structures.

Data set [1] can be described thus: logP by HPLC on reversed-phase column (EEC Directive 79/831 Annex V.A8). It is filed as physicochemical. Particulars: HPLC on reversed-phase column (C 18), 40° C., 0.1% aqueous formic acid and acetonitrile, linear gradient 10% to 90% acetonitrile. The essentials:
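Reversed-phase C18 HPLC at 40° C with 0.1% aqueous formic acid/acetonitrile, linear gradient 10% to 90% acetonitrile. LogP obtained from retention time by linear interpolation between successive unbranched alkan-2-ones (3 to 16 carbons) of known logP. Lambda-max taken from UV spectra at 200-400 nm at chromatographic peak maxima.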

Data set [2] relates to Leptosphaeria nodorum. The data set is described as follows: in vivo preventive test on Leptosphaeria nodorum (wheat). Particulars: 500 ppm of active ingredient, evaluated 7-9 days after inoculation. How it is done:
Solvent: 49 parts by weight of N,N-dimethylacetamide Emulsifier: 1 part by weight of alkylaryl polyglycol ether To produce a suitable preparation of active compound, 1 part by weight of active compound is mixed with the stated amounts of solvent and emulsifier, and the concentrate is diluted with water to the desired concentration. To test for preventive activity, young plants are sprayed with a preparation of active compound at the stated rate of application. One day after this treatment, the plants are inoculated with an aqueous spore suspension of Leptosphaeria nodorum. The plants remain for 48 hours in an incubation cabinet at 22° C. and a relative atmospheric humidity of 100%. Then the plants are placed in a greenhouse at a temperature of approximately 22° C. and a relative atmospheric humidity of approximately 90%. The test is evaluated 7-9 days after the inoculation. 0% means an efficacy which corresponds to that of the untreated control, while an efficacy of 100% means that no disease is observed.

For data set [3], the system named is Septoria tritici. As to the kind of experiment: in vivo preventive test on Septoria tritici (wheat). Particulars: 500 ppm of active ingredient, evaluated 21 days after inoculation. The procedure:
(§1) Solvent: 49 parts by weight of N,N-dimethylacetamide Emulsifier: 1 part by weight of alkylaryl polyglycol ether To produce a suitable preparation of active compound, 1 part by weight of active compound or active compound combination is mixed with the stated amounts of solvent and emulsifier, and the concentrate is diluted with water to the desired concentration. To test for preventive activity, young plants are sprayed with the preparation of active compound or active compound combination at the stated rate of application. After the spray coating has been dried, the plants are sprayed with a spore suspension of Septoria tritici. The plants remain for 48 hours in an incubation cabinet at approximately 20° C. and a relative atmospheric humidity of approximately 100% and afterwards for 60 hours at approximately 15° C. in a translucent incubation cabinet at a relative atmospheric humidity of approximately 100%. The plants are placed in the greenhouse at a temperature of approximately 15° C. and a relative atmospheric humidity of approximately 80%. The test is evaluated 21 days after the inoculation. 0% means an efficacy which corresponds to that of the untreated control, while an efficacy of 100% means that no disease is observed.

The subject of data set [4] is Sphaerotheca fuliginea. The data set is described as follows: in vivo preventive test on Sphaerotheca fuliginea (cucumber). Particulars: 500 ppm of active ingredient, evaluated 7 days after inoculation. How it is done: Solvent: 49 parts by weight of N,N-dimethylformamide Emulsifier: 1 part by weight of Alkylarylpolyglycolether To produce a suitable preparation of active compound, 1 part by weight of active compound is mixed with the stated amounts of solvent and emulsifier, and the concentrate is diluted with water to the desired concentration. To test for preventive activity, young plants are sprayed with the preparation of active compound at the stated rate of application. One day after this treatment, the plants are inoculated with an aqueous spore suspension of Sphaerotheca fuliginea. Then the plants are placed in a greenhouse at approximately 23° C. and a relative atmospheric humidity of approximately 70%. The test is evaluated 7 days after the inoculation. 0% means an efficacy which corresponds to that of the untreated control, while an efficacy of 100% means that no disease is observed.

Data set [5] deals with Alternaria solani. As to the kind of experiment: in vivo preventive test on Alternaria solani (tomato). Particulars: 500 ppm of active ingredient, evaluated 7 days after inoculation. How it is done: Solvent: 49 parts by weight of N,N-dimethylformamide Emulsifier: 1 part by weight of Alkylarylpolyglycolether To produce a suitable preparation of active compound, 1 part by weight of active compound is mixed with the stated amounts of solvent and emulsifier, and the concentrate is diluted with water to the desired concentration. To test for preventive activity, young plants are sprayed with the preparation of active compound at the stated rate of application. One day after this treatment, the plants are inoculated with an aqueous spore suspension of Alternaria solani. The plants remain for one day in an incubation cabinet at approximately 22° C. and a relative atmospheric humidity of 100%. Then the plants are placed in an incubation cabinet at approximately 20° C. and a relative atmospheric humidity of 96%. The test is evaluated 7 days after the inoculation. 0% means an efficacy which corresponds to that of the untreated control while an efficacy of 100% means that no disease is observed.

The test system of data set [6] is Fusarium nivale (var. majus). As to the kind of experiment: in vivo curative test on Fusarium nivale (wheat). Particulars: 500 ppm of active ingredient, evaluated 5 days after inoculation. The procedure: Solvent: 49 parts by weight of N,N-dimethylacetamide Emulsifier: 1 part by weight of alkylaryl polyglycol ether To produce a suitable preparation of active compound, 1 part by weight of active compound or active compound combination is mixed with the stated amounts of solvent and emulsifier, and the concentrate is diluted with water to the desired concentration. To test for curative activity, young plants are slightly injured by using a sandblast and afterwards they are sprayed with a conidia suspension of Fusarium nivale (var. majus) and placed for 24 hours in a greenhouse under a translucent incubation cabinet at a temperature of approximately 10° C. and a relative atmospheric humidity of approximately 100% and are subsequently sprayed with the preparation of active compound at the stated rate of application. After the spray coating has been dried, the plants remain in the greenhouse under translucent incubation cloches at a temperature of approximately 10° C. and a relative atmospheric humidity of approximately 100%. The test is evaluated 5 days after the inoculation. 0% means an efficacy which corresponds to that of the untreated control, while an efficacy of 100% means that no disease is observed.

The subject of data set [7] is Blumeria graminis fsp. hordei. As to the kind of experiment: in vivo preventive test on Blumeria graminis (barley). Particulars: 500 ppm of active ingredient, evaluated 7 days after inoculation. How it is done: Solvent: 49 parts by weight of N,N-dimethylacetamide Emulsifier: 1 part by weight of alkylaryl polyglycol ether To produce a suitable preparation of active compound, 1 part by weight of active compound or active compound combination is mixed with the stated amounts of solvent and emulsifier, and the concentrate is diluted with water to the desired concentration. To test for preventive activity, young plants are sprayed with the preparation of active compound or active compound combination at the stated rate of application. After the spray coating has been dried, the plants are dusted with spores of Blumeria graminis fsp. hordei. The plants are placed in the greenhouse at a temperature of approximately 18° C. and a relative atmospheric humidity of approximately 80% to promote the development of mildew pustules. The test is evaluated 7 days after the inoculation. 0% means an efficacy which corresponds to that of the untreated control, while an efficacy of 100% means that no disease is observed.

Data set [8] has as its system Venturia inaequalis. The data set is described as follows: in vivo preventive test on Venturia inaequalis (apple scab). Particulars: 100 ppm of active ingredient, evaluated 10 days after inoculation. The procedure: Solvent: 24.5 parts by weight of acetone • 24.5 parts by weight of N,N-dimethylacetamide Emulsifier: 1 part by weight of alkylaryl polyglycol ether To produce a suitable preparation of active compound, 1 part by weight of active compound is mixed with the stated amounts of solvent and emulsifier, and the concentrate is diluted with water to the desired concentration. To test for preventive activity, young plants are sprayed with the preparation of active compound at the stated rate of application. After the spray coating has dried on, the plants are inoculated with an aqueous conidia suspension of the causal agent of apple scab (Venturia inaequalis) and then remain for 1 day in an incubation cabinet at approximately 20° C. and a relative atmospheric humidity of 100%. The plants are then placed in a greenhouse at approximately 21° C. and a relative atmospheric humidity of approximately 90%. The test is evaluated 10 days after the inoculation. 0% means an efficacy which corresponds to that of the untreated control, while an efficacy of 100% means that no disease is observed.

Data set [9] has as its system Pyrenophora teres. As to the kind of experiment: in vivo preventive test on Pyrenophora teres (barley). Particulars: 500 ppm of active ingredient, evaluated 7-9 days after inoculation. The procedure, abridged: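 Young barley plants sprayed with compound in DMF/alkylaryl polyglycol ether emulsion; inoculated with P. teres spores one day later. 48 h at 22 °C, 100% humidity, then greenhouse ~20 °C, ~80% humidity; efficacy scored 7-9 days post-inoculation, 0% = untreated, 100% = no disease.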

Data set [10] deals with Puccinia triticina. As to the kind of experiment: in vivo protective test on Puccinia triticina (wheat). Particulars: 500 ppm of active ingredient, preventive, evaluated 8 days after inoculation. How it is done: as §1, with “Puccinia triticina.” for “Septoria tritici.”, “approximately” for “approximately 100% and afterwards for 60 hours at approximately 15° C. in a translucent incubation cabinet at a relative atmospheric humidity of approximately”, “20°” for “15°”, “8” for “21”

A word on the logP: it is the decadic logarithm of the partition coefficient of the neutral form, usually between octanol and water. Read a high logP as higher lipophilicity. `CC(c1csc2ccccc12)N(C(=O)c1c(C(F)F)nn(C)c1F)C1CC1` (racemic) [Example 85]: the logP in [1] is on record as 3.60. For the same compound, the Efficacy was 100% in data set [2]; 90% in [3]; 94% in data set [4]; 80% in data set [5]; 100% in data set [6]; 100% in data set [7]. The Efficacy in [8] and in data set [9] was 100% each time.
In turn, `Cc1ccsc1CN(C(=O)c1c(C(F)F)nn(C)c1F)C1CC1` [Example 40] displayed a logP in [1] of 2.88. The Efficacy in data set [3] turned out to be 100%; in data set [4], 90%; in data set [5], 95%; in data set [6] it was 92%; in data set [10] it was 71%; in [7], 100%. Also, the Efficacy in data set [9] amounted to 100%.
On to `Cc1cc(C(C)N(C(=O)c2c(C(F)F)nn(C)c2F)C2CC2)c(C)s1` (centres unmarked) [Example 48], for which the logP in data set [1] is 3.62. The Efficacy in data set [2] was determined as 100%; in data set [3] it was 100%; in [5], 95%; in data set [6], 86%; in data set [7], 100%; in data set [9] it was 100%.
As to `Cn1nc(C(F)F)c(C(=O)N(Cc2csc3ccccc23)C2CC2)c1F` [Example 90], the logP in data set [1] was found to be 3.27. Further, the Efficacy in data set [2] amounted to 100%; in data set [3], 100%; in data set [5] it was 95%; in [6], 100%; in data set [10], 88%; in data set [7], 100%. The compound further displayed an Efficacy in [9] of 100%.
`Cn1nc(C(F)F)c(C(=O)N(Cc2cccc3ccsc23)C2CC2)c1F` [Example 93] came in with a logP in data set [1] of 3.19. Also, the Efficacy in [3] is 100%; in [5], 100%; in data set [6], 71%; in data set [10], 100%; in data set [7], 94%; in data set [9] it was 100%.
`Cc1c(CN(C(=O)c2c(C(F)F)nn(C)c2F)C2CC2)sc2ccccc12` [Example 122] registered a logP in [1] of 3.64. Further, the Efficacy in data set [2] is given as 100%; in data set [3], 100%; in data set [5], 95%; in data set [6], 93%; in data set [10] it was 100%; in [9] it was 100%.
`Cc1nn(-c2ccccc2)nc1CN(C(=S)c1c(C(F)F)nn(C)c1F)C1CC1` [Example 132] gave a logP in data set [1] of 4.04. Moreover, the Efficacy in [4] was 100%; in data set [5], 90%; in data set [8] it was 98%; in [9] it was 100%.
`Cn1nc(C(F)F)c(C(=O)N(Cc2cc3ccccc3n2-c2ccccc2)C2CC2)c1F` [Example 155] yielded a logP in [1] of 3.96. Also, the Efficacy in data set [2] is 80%; in [3], 100%; in [5] it was 95%; in data set [6] it was 100%; in [10], 75%; in data set [7], 70%. Also, in data set [9], the Efficacy is 100%.
